Results as given in US11827663B2, “Use of UAP inhibitors to inhibit flux through the hexosamine biosynthetic pathway” (The Johns Hopkins University, priority 2014, dated 2023).
Read-outs that look alike come from different tables or passages of the source.

Columns and labels:
Format in all cases: cell-based
YAP/TAZ = test: Western blot of YAP/TAZ
Procedure: FIGS. 10A and 10B show the western blot results from primary glioblastoma cell lines 612 (FIG. 10A) (these cells were a kind gift of Dr. Quinones-Hinojosa (School of Medicine, Johns Hopkins University), who obtained the cells from cancer patients) and GS1049 (FIG. 10B) that were incubated for 48 h with Ac4Glc2Bz at the indicated concentrations. Each cell line was probed for the proteins Yes Associated Protein (YAP), transcriptional coactivator with PDZ-binding motif (TAZ), phosphorylated Yes Associated Protein (p-YAP), and Glyceraldehyde 3-phosphate dehydrogenase (GAPDH control). […] YAP/TAZ are two key mediators that act to […] the Hippo pathway, which helps to promote oncogenesis, metastasis, and cancer cell survival in circulation. Until now, there were no known small molecule pharmacological agents capable of decreasing YAP/TAZ expression. These studies helped illustrate the extraordinarily powerful potential of UAP1/2 inhibitors as truly disease modifying candidates, especially in cancer.
In addition, in FIG. 22B, YAP western blot results from Ac4Glc2Bz cells were obtained where shRNA knockdown of UAP1 was performed using lentiviral methods in PANC-1 cells (n=3). Similar to above, UAP1 in PANC-1 cells was knocked down using lentiviral vectors followed by 1 week selection using puromycin. […]

[1] = test system: primary glioblastoma cell line 612; test: Cell count of primary glioblastoma line 612
Procedure: FIG. 7A depicts the results of primary glioblastoma lines 612 and GS1049 after incubation for 48 h with Ac4Glc2Bz followed by cell counting and normalization to untreated controls. The data is log transformed to easily determine IC50 values. FIG. 7B and FIG. 7C depict the measurement of proliferation of the primary glioblastoma lines after 48 h incubation with Ac4Glc2Bz using a MTT assay.
Furthermore, cell morphologies were grossly altered as concentrations of Ac4Glc2Bz were increased, which likely indicated severe metabolic stress, induction of apoptosis, and possibly altered adhesion.
(§1) Cells were incubated at a range of concentrations of the UAP inhibitors (typically at 0, 10, 25, 50, 100, and 150 μM) and the number of cells were quantified, typically by automated counting (e.g., with a Coulter Counter Z2 instrument) after 1, 2, 3, or 5 days of exposure.

PANC-1 cells = test: Cell count / cell proliferation assay in PANC-1 cells; conditions: Homo sapiens
Procedure: FIGS. 5A and 5B show the results of cell toxicity experiments that were conducted on SW1990 and PANC-1 cells with the analogs indicated. Cells were counted after incubation with each analog for 48 hours. Cell counts were then normalized to controls, data was log transformed, and IC50 values were calculated. […]
as §1

[2] = test system: N-glycans of SW1990 cells; test: Mass spectrometry of cell surface N-glycans in SW1990 cells; conditions: 100 μM
Procedure: FIGS. 18A-18B present mass spectrometry results showing levels of N-glycans (lower molecular weight glycans) and high molecular weight glycans following treatments with Ac4Glc2Bz (100 μM) in SW1990 cells.
(a) Cell surface N-Glycans. After two days of incubation with analog (a length of time sufficient to observe maximal “metabolic glycoengineering” effects (Biotechnol Bioeng 85, 394-405 (2004); Biotechnol Bioeng 109, 992-1006 (2012); Mol Cell Proteomics, 10.1074/mcp.M1112.017558 (2012); Glycobiology 19, 1382-1401 (2009); Nature Protocols 2, 1585-1602 (2007)), cells treated with PNGaseF, N-glycans were collected, and analyzed by following a recently developed protocol that optimizes sialic acid detection and quantification (Anal Chem 85, 3606-3613 (2013)). As previously developed, automated methods were used to analyze mass spectroscopy data to detect phenyl-modified sugars in glycan structures. This analysis was valuable to monitor whether any phenyl-modified analog was biosynthetically processed (instead or in addition to inhibiting UAP) and incorporated into cellular glycans.
For example, as shown in FIGS. 18A-18B, SW1990 cells were treated with Ac4Glc2Bz (100 μM), and the cell extracts were analyzed by mass spectrometry.

In the case of `CC(=O)OCC1OC(OC(C)=O)[C@@H](NC(=O)c2ccccc2)[C@@H](OC(C)=O)[C@@H]1OC(C)=O` (stereo partly drawn) [Ac4Glc2Bz], the “protein expression of YAP/GAPDH” value (YAP/TAZ; as described in Example 5) is reported as “reduce protein expression of YAP/GAPDH in a dose-dependent manner”, the “protein expression of YAP/TAZ” value (YAP/TAZ; primary glioblastoma cell lines 612 and GS1049, 48 h) is reported as “virtually abolished” and the “cell densities under a microscope” value ([1]; 612 cells treated for 48 hours, FIG. 11) is reported as “striking reduction in cell densities in a dose dependent manner”. For the same molecule, the IC50 ([1]; 48 h incubation, cell counting normalized to untreated controls, read-out: Estimated IC50 values, 612) was 36.2 ± 1.1 µM, the IC50 (PANC-1 cells; PANC-1, 48 h, cell count after two days of incubation, FIG. 3, read-out: IC50 of reduction of cell numbers, PANC-1) was about 50 µM and the IC50 (PANC-1 cells; PANC-1, FIG. 5B, read-out: IC50 of PANC-1 cell proliferation) was about 45 µM. For the same molecule, the IC50 (PANC-1 cells; PANC-1, cells counted after 48 hours incubation, normalized to controls, read-out: Estimated IC50 values, PANC-1) was 45.5 ± 1.2 µM, the “amplitude of peaks for N-glycans (lower molecular weight glycans)” value [2] was “not significantly reduced” and the “peaks for high molecular weight glycans” value [2] was “quantitative changes were identified”.
